Experimental data taken from US6692927B2, “Bax degradation involvement in tumor survival and progression” (University of South Florida, priority 2000, dated 2004).
Where a SMILES comes first, the peptide text is derived from it. [ ]: non-standard residue; d: D form. The star is where a group is joined. Nva = CCC[C@H](N)C(=O)O; Cbz = O=C(OCc1ccccc1)*

Experiments:
[1] = test system: Bax degradation activity; assay: cell-free Bax degradation assay, inhibitor added to MCF-7 cell extract; format: biochemical, human; settings: 10-minute preincubation of MCF-7 cell extract with inhibitor (100 mM per FIG. 9C legend), 37° C., 4 h
Protocol: (§1) FIGS. 9A-9F show Bax degradation depends on ubiquitination, proteasome and ATP. (FIG. 9A) Jurkat cells (0 h) were treated with either 50 μM LLnV or 10 μM lactacystin, followed by preparation of Bax immunoprecipitates (with clone 6A7), which were immunoblotted with an ubiquitin antibody. Positions of putative ubiquitinated Bax proteins (p47, p55) are indicated at left. The nature of the ˜30 kDa and ˜84 kDa remains unclear. (FIG. 9B) The [^35S]-labeled Bax (upper) or Bcl-2 (lower) protein (1 μl) were incubated at 37° C. for 2 h with either buffer Z only (lane 1) or […] protein extract of MCF-7 cells grown exponentially (lane 2) or pretreated for 8 h with […] LLnV (lane 3). (FIG. 9C) The [^35S]-labeled Bax protein (1 μl) was incubated with either buffer Z only (lane 1) or 100 μg MCF-7 cell lysate at 37° C. for 4 h, in the presence of an indicated inhibitor (100 mM; lanes 3-8) or an equal volume of DMSO (lane 2) in buffer Z. A weak band of ˜16 kDa (indicated by an arrow) is probably an intermediate product of proteasome-mediated Bax degradation. (FIG. 9D) The proteasome in MCF-7 whole cell lysate (W lys, lane 1) was precipitated by using either ultraspin (ULS) or a proteasome subunit a6 antibody (IP). Both supernatant (lanes 2, 4) and pellet (lanes 3, 5) fractions were examined by Western blot assay using antibody to the proteasome a6 subunit (MW 33 kDa). (FIG. 9E) Bax degradation assay was performed as in FIG. 9B, with addition of buffer Z (lane 1) or 100 μg protein from MCF-7 whole cell lysate (lane 2), ultraspun supernatant (lane 3) or plus the pellet (lane 4), immunodepleted supernatant (lane 5) or plus a purified 20S proteasome ([…]; lane 6), or the purified proteasome alone (2 μg; lane 7). (FIG. 9F) Bax degradation assay was performed as in FIG. 9B, in the absence (lane 3) or presence of 10 mM ATP (lane 2) or 10 mM ATP-y-S (lane 4).
In vitro Bax Degradation Assay: Human Bax-a cDNA subcloned into pcDNA3 was a gift from Dr. Hong-gang Wang. Human full length of bcl-2-a cDNA was cloned from Jurkat T cells and subcloned into pcDNA3.1(−) as described+. Both bax and bcl-2 plasmids were used for coupled in vitro transcription/translation (Promega; Madison, Wis.) in the presence of [^35S]methionine (Amersham Pharmacia Biotech; Piscataway, N.J.). Protein extracts were prepared from either MCF-7 cells or prostate tumor tissues in buffer Y (50 mM Tris-HCl, pH 7.4, 250 mM NaCl, 1% Triton X-100, 0.1% SDS, 1 mM EDTA), and used for Bax (or Bcl-2) degradation assay. Briefly, 1 microl of [^35S]-labeled Bax (or Bcl-2) protein was incubated at 37° C. for 2-4 hours with 100-200 microg protein extract in buffer Z (50 mM Tris-HCl, pH 7.4, 5 mM MgCl2, 3 mM DTT, 10 mM ATP, 10 mM phosphocreatine, 10 microg/ml creatine phosphokinase, 10 microg/ml aprotinin, 10 microg/ml leupeptin, 10% glycerol and 2 microg/ml ubiquitin). After incubation, the samples were subjected to gel electrophoresis and autoradiography. Under the cell-free assay conditions, the calpain-mediated Bax cleavage activity was blocked by omission of calcium and addition of the protease inhibitor leupeptin (Wood et al, 1998). To deplete the proteasome, MCF-7 cell lysates were either immunoprecipitated with the 20S proteasome subunit a6 antibody or ultracentrifugated at 100,000×g for 6 hours. The proteasome-enriched pellet fraction was resuspended in buffer Y.
To further study the proteasome activity that degrades Bax protein, a cell-free Bax degradation assay was developed by using an in vitro-translated, [^35S]-labeled Bax protein as substrate (FIG. 9B, upper, lane 1). The Bax degradation activity is present in protein extracts prepared from exponentially growing MCF-7 (FIG. 9), K562, VA-13, WI-38, Jurkat T or HL-60 cells. The labeled Bax was almost completely degraded by a MCF-7 cell extract after 2 to 4 hours incubation at 37° C. (FIG. 9B, upper, and FIG. 9C, lanes 2 vs. 1). […]

[2] = test system: Jurkat T cells; assay: Western blot and Bax IP/ubiquitin blot in Jurkat T cells; format: cell-based, human
Protocol: FIGS. 8A-8D show proteasome inhibition accumulates Bax to mitochondria/cytoplasm and increases interaction between Bax and Bcl-2 proteins. Jurkat cells (0 h; FIG. 8A and FIG. 8B) or Jurkat cells overexpressing Bcl-2 (0 h; FIG. 8C and FIG. 8D) were treated by either 10 μM lactacystin (FIGS. 8A-8C), 50 μM LLnV (FIG. 8D), or 50 μM LLM (FIG. 8A and FIG. 8B) for the indicated hours. (FIG. 8A and FIG. 8B) Western blotting with antibodies to PARP and Bax were performed as described in FIG. 7. (FIG. 8C) Immunohistochemistry (see MATERIALS AND METHODS). Localization of Bax protein (green) and nuclei (red) are shown. (FIG. 8D) Bax immunoprecipitates, prepared by an agarose-conjugated N-20 Bax antibody, were immunoblotted first with the 6A7 Bax antibody (upper) and then reblotted with a Bcl-2 antibody (lower).
as §1, with “4). […]” for “4).”

CCC[C@@H](C=O)NC(=O)[C@H](CC(C)C)NC(=O)[C@H](CC(C)C)NC(=O)OCc1ccccc1 [LLnV] (Cbz-Leu-Leu-[Nva]-aldehyde)
Bax degradation process/activity [1]: blocked | p55 and p47 levels (putative ubiquitinated Bax) ([2]; 50 μM LLnV, 8 hours): significantly increased

CC(=O)N[C@@H](CSC(=O)[C@]1([C@@H](O)C(C)C)NC(=O)[C@H](C)[C@@H]1O)C(=O)O [lactacystin]
Bax degradation process/activity [1]: not | p55 and p47 levels (putative ubiquitinated Bax) ([2]; 10 μM lactacystin, 4 hours): significantly increased | Bax accumulation and PARP cleavage ([2]; 10 microM): induced Bax accumulation and PARP cleavage
